# Results from PubChem BioAssay (NCI).
#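 Each compound was tested at five concentrations against cells in 96-well plates for 48 hours. The concentration for 50% growth inhibition is given as GI50. The concentration for full growth arrest is given as TGI.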
# Assays:
# Assay in all cases: growth of human tumour cells (NCI), 48 h
# DMS 273 small cell lung = system: DMS 273 small cell lung
# EKVX NSCLC = system: EKVX NSCLC
# HOP-18 NSCLC = system: HOP-18 NSCLC
# HOP-62 NSCLC = system: HOP-62 NSCLC
# MOLT-4 leukemia = system: MOLT-4 leukemia
# OVCAR-8 ovarian = system: OVCAR-8 ovarian
# SN12C renal = system: SN12C renal
# SNB-78 CNS = system: SNB-78 CNS
# SW-620 colon = system: SW-620 colon
# TK-10 renal = system: TK-10 renal
# MDA-MB-231 breast = system: MDA-MB-231 breast
SMILES,TGI (DMS 273 small cell lung) [µM],TGI (EKVX NSCLC) [µM],TGI (HOP-18 NSCLC) [µM],TGI (HOP-62 NSCLC) [µM],TGI (MOLT-4 leukemia) [µM],TGI (OVCAR-8 ovarian) [µM],TGI (SN12C renal) [µM],TGI (SNB-78 CNS) [µM],TGI (SW-620 colon) [µM],TGI (TK-10 renal) [µM],GI50 (EKVX NSCLC) [µM],GI50 (HOP-62 NSCLC) [µM],GI50 (MDA-MB-231 breast) [µM],TGI (MDA-MB-231 breast) [µM],GI50 (MOLT-4 leukemia) [µM],GI50 (OVCAR-8 ovarian) [µM],GI50 (SN12C renal) [µM],GI50 (SW-620 colon) [µM],GI50 (TK-10 renal) [µM],GI50 (DMS 273 small cell lung) [µM]
O=c1c(-c2ccccc2)c2oc(c1-c1ccccc1)CSCc1cccc(c1)CSC2,> 100,> 100,> 100,62.4,> 100,> 100,> 100,> 100,> 100,> 100,–,–,–,–,–,–,–,–,–,–
COC(=O)C(CCCN1C(=O)c2ccccc2C1=O)C(=O)OC,> 100,> 100,> 100,> 100,> 100,> 100,> 100,> 100,> 100,> 100,–,–,–,–,–,–,–,–,–,–
CCCCCC[C@@H]1CCC2C(CO)[C@@H](O)CC[C@@H]2C1 (stereo partly specified),39.4,32.7,43,33,57,33.4,30.6,41.3,39.2,–,–,–,–,–,–,–,–,–,–,–
O=C(/C=C/c1ccc([N+](=O)[O-])cc1)c1ccc(NCc2nc3ccccc3[nH]2)cc1,13.6,22.2,31.3,26.7,10.2,12.9,14.8,29,6.19,19.9,–,–,–,–,–,–,–,–,–,–
C=CC[C@H](C[C@H](C[C@H](C[C@H](C[C@H](C[C@H](C[C@H](C[C@H](C[C@H](C[C@H](CCCCC)OC)OC)OC)OC)OC)OC)OC)OC)OC)OC,> 100,> 100,> 100,> 100,> 100,> 100,> 100,> 100,> 100,> 100,–,–,–,–,–,–,–,–,–,–
CC(=O)O/N=C(/C)c1ccccc1O,> 100,> 100,> 100,> 100,> 100,> 100,> 100,> 100,> 100,> 100,–,–,–,–,–,–,–,–,–,–
CCCCN(CCCC)C(=O)C(=O)C(C(=O)c1ccc(OC)cc1)c1ccc(OC)cc1 (stereo unspecified),–,> 100,> 100,> 100,> 100,> 100,> 100,> 100,> 100,> 100,–,–,–,–,–,–,–,–,–,–
CCc1c(OC(C)=O)c2c(NC3OCC(OC(C)=O)C(OC(C)=O)C3OC(C)=O)nc(SC)nc2oc1=O (stereo unspecified),–,> 100,> 100,> 100,> 100,> 100,> 100,> 100,> 100,> 100,–,–,–,–,–,–,–,–,–,–
COc1ccc(OC)c(N2CC(N)C2=O)c1 (stereo unspecified),> 100,> 100,> 100,> 100,> 100,> 100,> 100,–,> 100,> 100,–,–,–,–,–,–,–,–,–,–
Cc1ccc(/C=C/C(=O)c2cccc3ccccc23)cc1,47.2,34,–,37.7,67.6,29,27.4,31.4,26.2,28.5,–,–,–,–,–,–,–,–,–,–
O=C1C=CC(=O)c2nc3c(cc21)CCC3,47.4,–,39.8,> 100,33.7,28.8,40.3,42,31.1,32.7,–,–,–,–,–,–,–,–,–,–
COC(=O)CC(c1ccccc1)C1(c2ccccc2)SCCS1 (stereo unspecified),> 290,> 290,> 290,> 290,> 290,> 290,> 290,–,> 290,> 290,–,–,–,–,–,–,–,–,–,–
O=C(CCCSc1nc(-c2ccccc2)cc(-c2ccccc2)n1)NO,–,14.5,–,4.4,10.2,18.3,9.1,–,12.7,19.1,2.93,0.671,1.99,7.72,1.1,0.484,1.94,0.777,0.669,–
O=S(=O)(N/N=C/c1cccc(/C=N/NS(=O)(=O)c2ccccc2)c1)c1ccccc1,> 100,> 100,> 100,> 100,> 100,> 100,> 100,> 100,–,> 100,–,–,–,–,–,–,–,–,–,–
C=C(C)CCOC(c1ccccc1)(c1ccccc1)c1ccccc1,–,–,–,> 100,> 100,> 100,> 100,> 100,> 100,> 100,–,–,–,–,–,–,–,–,–,–
Nc1ccc(C2=NNC(=O)Cc3cc4c(cc32)OCCO4)cc1Cl,–,> 50,–,> 50,> 50,> 50,> 50,–,> 50,> 50,12.7,5.12,27.1,> 50,3.05,8.03,14.9,2.01,18.9,–
CC(=O)CC(OC(C)=O)C1=CCC2C(CC1C)OC(=O)C2C (stereo unspecified),–,> 100,–,> 100,> 100,> 100,> 100,–,> 100,> 100,–,–,–,> 100,–,–,–,–,–,–
O=c1ccc2ccccc2cc1[O-].O=c1ccc2ccccc2cc1[O-].[O]=[U+2]=[O],> 100,55.7,–,53.8,46.2,59.9,64.1,–,39.7,66.3,10.4,23.9,–,–,4.71,8.83,23.5,7.76,17,6.71
Nc1cc(NN=C(c2ccc(O)cc2)c2ccc(O)cc2)c([N+](=O)[O-])cc1[N+](=O)[O-],–,7.45,–,3.98,7.69,15.1,3.4,–,2.93,6.98,2.42,2.13,2.22,5.38,2.76,3.12,1.58,1.58,2.22,–
